Results published in article PMC9312238, “Novel Organoselenium Redox Modulators with Potential Anticancer, Antimicrobial, and Antioxidant Activities” (Antioxidants, 2022).
Converted amounts (≈) assume the structure as drawn. Like-named read-outs stand apart in the source and are kept apart here.

Columns and labels:
Escherichia coli = experiment: MIC by microdilution, E. coli; assay type: cell-based
Procedure: (§1) The antimicrobial activities of the OSe compounds were evaluated against C. albicans yeast, as well as E. coli and S. bacteria, employing the agar well diffusion assay. Furthermore, the MICs (in µM) were determined by the microdilution method according to the reported protocol. More details are in the Supporting Information.
1.1. The biological assays
1.1.1. The anticancer activity
The breast adenocarcinoma (MCF-7), Hepatocellular carcinoma (HEPG-2), and nor-mal fibroblast (WI-38) cells were obtained from ATCC via Holding company for biological products and vaccines (VACSERA), Cairo, Egypt. The reagents RPMI-1640 medium, MTT, DMSO, and fetal bovine serum was obtained from Sigma Aldrich. Dulbecco’s modified Eagle’s medium was used as the culture medium for the cells, and the cytotoxicity was evaluated using the reported MTT assay. […]
Cell lines were cultured in RPMI-1640 medium with 10% fetal bovine serum. […] The colorimetric assay is measured and recorded at an absorbance of 570 nm using a plate reader (EXL 800, USA). The percentage of the relative cell viability was calculated as (A570 of treated samples/A570 of the untreated sample) X 100. […]
The antimicrobial activities of the OSe compounds were evaluated against C. albicans yeast as well as E. coli gram-negative and S. aureus gram-positive bacteria employing the agar well diffusion assay. […]

Candida albicans = experiment: MIC by microdilution, C. albicans; assay type: cell-based; details: read-out: MIC (μM) C. albicans
Procedure: as §1, with “Information. […]” for “Information.”
1.1.1. The antimicrobial activity
The antimicrobial activities of the OSe compounds were evaluated against C. albicans yeast as well as E. coli gram-negative and S. aureus gram-positive bacteria employing the agar well diffusion assay. Briefly, a concentration of 1 mM was prepared for each compound by dissolving in DMSO. Paper discs of standard size […] were steri-lized in an autoclave and soaked in 20 µL of the test compounds, and placed in the Petri dishes, which in turn contain a nutrient media (agar 20 g, peptone 5 g, and beef extract 3 g) seeded with the dedicated strain. Incubation lasted for 24 h at 36
Furthermore, the MICs (in µM) were determined by the microdilution method according to the reported protocol. […]
Inhibition%= (Ablank-Asample)/(Ablank)*100. (1)

Compound	MIC (Escherichia coli; Escherichia coli, read-out: MIC (μM) E. coli) [µM]	MIC (Candida albicans; Candida albicans) [µM]	MIC (μM) E. coli (Escherichia coli; microdilution) [µM]	MIC (Candida albicans; microdilution) [µM]
Nc1ccc([Se]CC(=O)N[C@@H](Cc2c[nH]c3ccccc23)C(=O)O)cc1 [Compound 6, (2-((4-aminophenyl)selanyl)acetyl)tryptophan]	1 (≈ 0.416 µg/mL)	8 (≈ 3.33 µg/mL)	–	–
2-((4-(2-(3-hydroxynaphthalen-1(4H)-ylidene)hydrazinyl)phenyl)selanyl)-N-phenylacetamide [Compound 9]	–	–	0.5	2
